Measured values published in US20110039762A1, “TARGETED ANTIMICROBIAL MOIETIES” (C3 JIAN, INC., priority 2009, published 2011).
Entries after “also recorded” stand apart in the source; their conditions may differ.

Tests used:
[1] = tested on: S. pneumoniae; test: Kill or inhibit growth/proliferation; morphology, biofilm and growth disruption (Tables 5, 6); format: cell-based, Streptococcus pneumoniae; parameters: key: A: Peptide aggregates; B: Less hyphal formation; Clumps; Diffuse clumps and small polyps; F: Diffuse growth; H: Thin; I: Growth inhibition; Microcolony formation; Rippled; Small polyps; Thick; W: Halo formation on top, microlonies on bottom; also: test concentration or dose not given here
[2] = tested on: microorganisms (e.g., bacteria, yeasts, fungi); test: Targeting peptide binding to target microorganisms (Table 3); conditions: preferably 1x PBS; for Target(s) (microorganisms bound by the targeting peptide): peptide binding in aqueous buffers varied by peptide solubility
[3] = tested on: microorganisms; test: Peptides having multiple activities (targeting/binding, antimicrobial, growth or phenotype altering)
Source text: In certain embodiments, peptides described herein can have multiple activities. Thus for example, a peptide can have both binding/targeting activity and antimicrobial activity. Such peptides can be used, e.g., in a chimeric construct, for any or all of these properties. Thus, for example, a peptide designated “B” in Table 8 can be used as a targeting peptide. If it is also designated G or M it can also be used for antimicrobial activity.

[4] = tested on: MRSA; test: Kill or inhibit growth/proliferation; morphology, biofilm and growth disruption (Tables 5, 6); format: cell-based, Methicillin-resistant Staphylococcus aureus; parameters: key: A: Peptide aggregates; B: Less hyphal formation; Clumps; Diffuse clumps and small polyps; F: Diffuse growth; H: Thin; I: Growth inhibition; Microcolony formation; Rippled; Small polyps; Thick; W: Halo formation on top, microlonies on bottom; also: test concentration or dose not given here
[5] = tested on: S. epidermidis; test: as above; format: cell-based, Staphylococcus epidermidis; parameters: key: A: Peptide aggregates; B: Less hyphal formation; Clumps; Diffuse clumps and small polyps; F: Diffuse growth; H: Thin; I: Growth inhibition; Microcolony formation; Rippled; Small polyps; Thick; W: Halo formation on top, microlonies on bottom; also: test concentration or dose not given here
[6] = microorganism(s) the targeting peptide binds, peptide binding conducted in aqueous buffers varied by peptide solubility
[7] = microorganism the targeting peptide binds, binding in aqueous buffers varied by peptide solubility
[8] = microorganism(s) the targeting peptide binds, binding in aqueous buffers depending on peptide solubility

Substance | Activities [3] | Organism, effect [4] | Organism, effect [5] | Target(s) [2, 8] | other results
MQIFYIKTKIFLSFFLFLLIFSQCFYKIEE [PF-442] | G B | MRSA (M) |  |  | Organism, effect [1]: S. pneumoniae (C); Target(s) [2, 6]: S. epidermidis; also recorded: E. coli; also recorded: C. albicans; also recorded: S. pneumoniae; also recorded: E. faecalis
PF-009: peptide having multiple activities (chain 1 SKKYNHILNQENR; chain 2 SKKYNHILNQENR; Peptide with targeting and/or antimicrobial activity) | G B |  | S. epidermidis (S) |  | Target(s) [2, 7]: M. luteus; also recorded: P. mirabilis; also recorded: C. albicans
PF-024: peptide having multiple activities (chain 1 DLRKAK; chain 2 DLRKAK; Peptide with targeting and/or antimicrobial activity) | G B | MRSA (M) | S. epidermidis (D) |  | Target(s) [2, 7]: M. luteus and C. albicans and MRSA and E. faecalis and C. jeikeium
PF-027: peptide having multiple activities (chain 1 HNARKYLEFISQKIDGDKLTKEDSL; chain 2 HNARKYLEFISQKIDGDKLTKEDSL; Peptide with targeting and/or antimicrobial activity) | G B | MRSA (M) | S. epidermidis (D) |  | Target(s) [2, 7]: M. luteus and MRSA and E. faecalis and C. jejuni
PF-034: peptide having multiple activities (chain 1 EPKKKHFPKMESASSEP; chain 2 EPKKKHFPKMESASSEP; Peptide with targeting and/or antimicrobial activity) | G B |  | S. epidermidis (A) |  | Target(s) [2, 7]: M. luteus
PF-041: peptide having multiple activities (chain 1 ELLVILPGFI; chain 2 ELLVILPGFI; Peptide with targeting and/or antimicrobial activity) | G B | MRSA (M) | S. epidermidis (R) |  | Target(s) [2, 7]: MRSA
PF-064: peptide having multiple activities (chain 1 DYYGKE; chain 2 DYYGKE; Peptide with targeting and/or antimicrobial activity) | G B | MRSA (M) | S. epidermidis (D) |  | Target(s) [2, 7]: E. coli
PF-074: peptide having multiple activities (RDIHPIYFMTKD; Peptide with targeting and/or antimicrobial activity) | G B | MRSA (M) | S. epidermidis (D) | S. epidermidis and M. luteus and MRSA | 
PF-123: peptide having multiple activities (TTRPQVAEDRQLDDALKETFPASDPISP; Peptide with targeting and/or antimicrobial activity) | G B |  | S. epidermidis (M) | M. luteus; also recorded: E. coli | 
PF-157: peptide having multiple activities (HTAVVWLAGVSGCVALSHCEPA; Peptide with targeting and/or antimicrobial activity) | G B |  | S. epidermidis (M) |  | 
PF-180: peptide having multiple activities (SGLGDLGFSSEAK; Peptide with targeting and/or antimicrobial activity) | G B |  | S. epidermidis (C) | S. epidermidis and M. luteus and P. aeruginosa and C. albicans and MRSA and E. faecalis and C. jejuni and M. smegmatis | 
PF-192: peptide having multiple activities (VEEDEAPPPHY; Peptide with targeting and/or antimicrobial activity) | G B |  | S. epidermidis (D) | S. epidermidis; also recorded: M. luteus; also recorded: P. aeruginosa; also recorded: C. albicans; also recorded: E. faecalis; also recorded: C. jeikeium | 
PF-233: peptide having multiple activities (DANAMARTTIAIVYILALIALTISYSL; Peptide with targeting and/or antimicrobial activity) | G B |  | S. epidermidis (C) | S. epidermidis; also recorded: M. luteus; also recorded: P. aeruginosa; also recorded: A. baumannii | 
PF-273: peptide having multiple activities (LVGALLIFVALIYMVLKGNADKN; Peptide with targeting and/or antimicrobial activity) | G B |  | S. epidermidis (C) | S. epidermidis; also recorded: M. luteus; also recorded: P. aeruginosa; also recorded: A. baumannii | 
PF-290 (MVHDMTNGTLIIVKH; Peptide with targeting and/or antimicrobial activity) |  |  | S. epidermidis (C) |  | 
PF-293 (YDPLK; Peptide with targeting and/or antimicrobial activity) |  |  | S. epidermidis (C) |  | 
PF-294: peptide having multiple activities (DFLVNFLWFKGELNWGKKRYK; Peptide with targeting and/or antimicrobial activity) | G B |  | S. epidermidis (C) | S. epidermidis; also recorded: C. difficile | 
PF-310 (GVALIGTILVPLLSGLFG; Peptide with targeting and/or antimicrobial activity) |  |  | S. epidermidis (C) |  | 
PF-313: peptide having multiple activities (YITSHKNARAIIKKFERDEILEEVITHYLNRK; Peptide with targeting and/or antimicrobial activity) | G B |  | S. epidermidis (C) | S. epidermidis; also recorded: C. difficile | 
PF-397: peptide having multiple activities (VEDLMEDLNA; Peptide with targeting and/or antimicrobial activity) | G B |  | S. epidermidis (C) |  | Target(s) [2, 6]: S. epidermidis and MRSA and S. pneumoniae and E. faecalis and C. jejuni
PF-539: peptide having multiple activities (chain 1 SIILTKKKRRKIPLSIDSQIYKYTFKQ; chain 2 SIILTKKKRRKIPLSIDSQIYKYTFKQ; Peptide with targeting and/or antimicrobial activity) | G B | MRSA (H) |  |  | Organism, effect [1]: S. pneumoniae (A)
PF-642: peptide having multiple activities (chain 1 FTTPMIGIPAGLLGGSYYLKRREEKGK; chain 2 FTTPMIGIPAGLLGGSYYLKRREEKGK; Peptide with targeting and/or antimicrobial activity) | G B | MRSA (M) |  |  | Target(s) (microorganisms bound by the targeting peptide) [2]: M. luteus and MRSA and C. jeikeium
PF-658 (chain 1 PTTPPPTTPPEIPTGGTVIST; chain 2 PTTPPPTTPPEIPTGGTVIST; Peptide with targeting and/or antimicrobial activity) |  |  |  |  | Organism, effect (morphology, biofilm and growth disruption) [1]: S. pneumoniae (H); Target(s) (microorganisms bound by the targeting peptide) [2]: Mycobacteria spp; Organism, effect (morphology, biofilm and growth disruption) [4]: MRSA (R)
PF-694 (chain 1 DLIRPLYSMSAPSVA; chain 2 DLIRPLYSMSAPSVA; Peptide with targeting and/or antimicrobial activity) |  |  |  |  | Organism, effect (morphology, biofilm and growth disruption) [1]: S. pneumoniae (A); Target(s) (microorganisms bound by the targeting peptide) [2]: Mycobacteria spp; Organism, effect (morphology, biofilm and growth disruption) [4]: MRSA (R)
PF-738: peptide having multiple activities (KSGATSAASGAKSGASS; Peptide with targeting and/or antimicrobial activity) | G B |  |  |  | Target(s) (microorganisms bound by the targeting peptide) [2]: S. epidermidis; also recorded: C. albicans; also recorded: C. jeikeium; Organism, effect (morphology, biofilm and growth disruption) [4]: MRSA (M)
PF-764: peptide having multiple activities (GYFEPGKRD; Peptide with targeting and/or antimicrobial activity) | G B |  |  |  | Organism, effect (morphology, biofilm and growth disruption) [1]: S. pneumoniae (H); Target(s) (microorganisms bound by the targeting peptide) [2]: S. epidermidis and M. luteus and C. albicans and MRSA and S. pneumoniae and E. faecalis and C. jeikeium; Organism, effect (morphology, biofilm and growth disruption) [4]: MRSA (D)
